Test results as given in patent US20220362276A1, “Small Molecule Inhibitors of Viral Replication” (The Trustees of Princeton University, priority 2019, published 2022).
Entries after “also recorded” stand apart in the source; their conditions may differ.

Legend:
[1] = test system: translation of T7-tagBFP-Gluc; assay: Translation inhibition assay (T7-tagBFP-Gluc RNA in Huh7 cells); type: cell-based; settings: 4 days
Description: Generation of T7-tagBFP-Gluc. To make the T7-TagBFP-GLuc construct, SP6-TagBFP-2A-FLuc was used as a template and the primers PU-O-6099 and PU-O-6100 were designed to partially anneal immediately upstream and downstream of the SP6 promoter. The unbound portions of PU-O-6099 and PU-O-6100 contained the T7 promoter sequence. […] Next, PCR amplification of the T7-TagBFP-2A backbone was completed using the Q5® High-Fidelity DNA Polymerase and PU-O-6101 and PU-O-6102 as the primers. […] The Gluc insert was then ligated to the T7-TagBFP-2A backbone using the In-Fusion® HD Cloning Kit.
Translation Inhibition Assay. Huh7 cells were seeded at 6,250 cells per well in 96-well format. The cells were then transfected with 50 ng T7-TagBFP-Gluc in vitro transcribed RNA per well. Five hours post-transfection, transfection medium was changed to medium containing isocotoin, ribavirin, cycloheximide, or roclagamide at 6 or 7 different concentrations. DMSO concentration was kept constant in all the wells at 0.125%. For each drug dose, triplicate wells were tested. On day four post-transfection, a luciferase assay was performed on supernatant media to measure Gluc expression.

[2] = test system: p6/Gluc (HEVΔORF2/3[Gluc]) replicon, KernowC1p6 genotype 3; assay: Dose titration against p6/Gluc replicon in Huh7 cells, Gaussia luciferase readout; type: cell-based, hepatitis E virus; settings: for inhibition of p6/Gluc (HEV) replication, in words: Huh7 cells, supernatant Gluc
Protocol: Gaussia luciferase assays.
Statistics—calculation of IC50. Half maximal inhibitory concentrations were calculated by graphing dose-titration data as nonlinear curve fits with three parameters using GraphPad Prism (v8.1.2).

[3] = test system: Huh7 cells; assay: ATP-based cell viability assay (CellTiterGlo); settings: ATP live-cell viability assay
Protocol: Measurement of Cytotoxicity by CellTiterGlo Assay. […] Readout was performed using a Berthold luminometer.

COc1ccc([C@@]23Oc4cc(OC)cc(OC)c4C2(O)[C@H](O)[C@H](C(=O)N(C)C)[C@H]3c2ccccc2)cc1 (stereo in doubt) [roclagamide, (1R,2R,3S,3aR,8bS)-1,8b-dihydroxy-6,8-dimethoxy-3a-(4-methoxyphenyl)-N,N-dimethyl-3-phenyl-2,3-dihydro-1H-cyclopenta[b][1]benzofuran-2-carboxamide, reference compound] was tested, and the “suppression of Gluc levels” value [1] was about 10 fold.
C=CCNC1=C2C[C@@H](C)C[C@H](OC)[C@H](O)[C@@H](C)/C=C(\C)[C@H](OC(N)=O)[C@@H](OC)/C=C\C=C(/C)C(=O)NC(=CC1=O)C2=O [17-AAG, [(4E,6Z,8S,9S,10E,12S,13R,14S,16R)-13-hydroxy-8,14-dimethoxy-4,10,12,16-tetramethyl-3,20,22-trioxo-19-(prop-2-enylamino)-2-azabicyclo[16.3.1]docosa-1(21),4,6,10,18-pentaen-9-yl] carbamate, reference compound] was tested, and the “inhibition of p6/Gluc (HEV) replication, in words” value (shortened to “inhibition of p6/Gluc”) [2] was “inhibited HEV replication; also recorded: potent inhibitors” and the “cytotoxicity / inhibition of cell growth, in words” value (“cytotoxicity / inhibition” for short) [3] was “cytostatic properties; also recorded: inhibitors of cell growth”.
For CCNC(=O)c1noc(-c2cc(C(C)C)c(O)cc2O)c1-c1ccc(CN2CCOCC2)cc1 [AUY-922, 5-(2,4-dihydroxy-5-propan-2-ylphenyl)-N-ethyl-4-[4-(morpholin-4-ylmethyl)phenyl]-1,2-oxazole-3-carboxamide, reference compound], the “inhibition of p6/Gluc” value [2] was “inhibited HEV replication; also recorded: potent inhibitors; also recorded: most potent analogs”.
O=C(c1ccc(Cl)cc1)c1ccc(O)cc1O [IBS102, (4-chlorophenyl)-(2,4-dihydroxyphenyl)methanone] was tested, and the “fold greater decrease in RLU than isocotoin” value ([2]; 25 μM dose, first round of SAR) was “approximately 10 fold”.
In the case of COc1ccc(-c2c(C)noc2-c2ccc(O)cc2O)cc1 [IBS672, 4-[4-(4-methoxyphenyl)-3-methyl-1,2-oxazol-5-yl]benzene-1,3-diol], the “fold greater decrease in RLU than isocotoin” value ([2]; 1.5625 μM, second round of SAR) is reported as “approximately 40 fold”.
In the case of CC(C)c1cc(-c2n[nH]c(=O)n2-c2ccc3c(ccn3C)c2)c(O)cc1O [STA-9090, 3-(2,4-dihydroxy-5-propan-2-ylphenyl)-4-(1-methylindol-5-yl)-1H-1,2,4-triazol-5-one, reference compound], the “inhibition of p6/Gluc” value [2] is reported as “inhibited HEV replication; also recorded: potent inhibitors” and the “cytotoxicity / inhibition” value [3] is reported as “cytostatic properties; also recorded: inhibitors of cell growth”.
For CCNC(=O)c1noc(-c2cc(Cl)c(O)cc2O)c1-c1ccc(OC)cc1 [VER-50589, 5-(5-chloro-2,4-dihydroxyphenyl)-N-ethyl-4-(4-methoxyphenyl)-1,2-oxazole-3-carboxamide, reference compound], the “inhibition of p6/Gluc” value [2] was “inhibited HEV replication; also recorded: potent inhibitors; also recorded: most potent analogs” and the “cytotoxicity / inhibition” value [3] was “cytostatic properties; also recorded: inhibitors of cell growth”.
C[C@@H]1C[C@@H]([C@H](O)CC2CC(=O)NC(=O)C2)C(=O)[C@@H](C)C1 [cycloheximide, reference compound] was tested, and the “suppression of Gluc levels” value [1] was about 10 fold.
C[C@H]1O[C@@H](O[C@H]2[C@@H](O)C[C@H](O[C@H]3[C@@H](O)C[C@H](O[C@H]4CC[C@@]5(C)[C@H](CC[C@@H]6[C@@H]5CC[C@]5(C)[C@@H](C7=CC(=O)OC7)[C@@H](O)C[C@]65O)C4)O[C@@H]3C)O[C@@H]2C)C[C@H](O)[C@@H]1O [gitoxin] was tested, and the “inhibition of p6/Gluc” value [2] was “dose-dependent inhibition” and the “cytotoxicity / inhibition” value [3] was “high cytotoxicity”.
